For three molecules, mutagenic call results are on record in PubChem BioAssay AID1259407 (Chemical Carcinogenesis Research Information System (CCRIS), 2018).

Activity calls are given as the source filed them. How the calls were made is not given here.

The test system of this data set is CCRIS mutagenicity, Ames/micronucleus/aberration tests. Kind of data set: CCRIS mutagenicity studies.
[1] abbreviates: Test System: AMES SALMONELLA TYPHIMURIUM, Strain/Indicator: TA98, Metabolic Activation: NONE, Method: PREINCUBATION
The mark [2] stands for this setting: Test System: AMES SALMONELLA TYPHIMURIUM, Strain/Indicator: TA100, Metabolic Activation: NONE, Method: PREINCUBATION

On to `Cc1cc(-c2ccc(N)c(C)c2)ccc1N`, for which the mutagenic call was “active; positive” (End Point: IN VITRO CHROMOSOMAL ABERRATIONS, Test System: CHINESE HAMSTER OVARY CELLS, Metabolic Activation: NONE); “active; positive” (End Point: IN VITRO CHROMOSOMAL ABERRATIONS, Test System: CHINESE HAMSTER OVARY CELLS, Metabolic Activation: RAT, LIVER, S-9, AROCLOR 1254); “active; positive (structural changes)” (End Point: IN VITRO CHROMOSOMAL ABERRATIONS, Test System: CHL CELLS, Metabolic Activation: NONE); “inactive; negative; authors report equivocal results for structural changes at the highest” (End Point: IN VITRO CHROMOSOMAL ABERRATIONS, Test System: CHL CELLS, Metabolic Activation: RAT, LIVER, S-9, SODIUM PHENOBARBITAL AND 5,6-BENZOFLAVONE); “inactive; negative” (Test System: AMES SALMONELLA TYPHIMURIUM, Strain/Indicator: SV50, Metabolic Activation: NONE, Method: PREINCUBATION (PRIVAL METHOD)); “inactive; negative” (Test System: AMES SALMONELLA TYPHIMURIUM, Strain/Indicator: SV50, Metabolic Activation: RAT, LIVER, S-9, AROCLOR 1254, Method: STANDARD PLATE). Besides, the mutagenic call reads like this: (Test System: AMES SALMONELLA TYPHIMURIUM, Strain/Indicator: TA97, Metabolic Activation: HAMSTER, LIVER, S-9, AROCLOR 1254 (10%), Method: PREINCUBATION) “inactive; negative”; (Test System: AMES SALMONELLA TYPHIMURIUM, Strain/Indicator: TA97, Metabolic Activation: HAMSTER, LIVER, S-9, AROCLOR 1254, Method: PREINCUBATION) “inactive; negative”; (Test System: AMES SALMONELLA TYPHIMURIUM, Strain/Indicator: TA97, Metabolic Activation: NONE, Method: PREINCUBATION) “inactive; negative”; (Test System: AMES SALMONELLA TYPHIMURIUM, Strain/Indicator: TA97, Metabolic Activation: RAT, LIVER, S-9, AROCLOR 1254 (10%), Method: PREINCUBATION) “inactive; negative”; (Test System: AMES SALMONELLA TYPHIMURIUM, Strain/Indicator: TA97, Metabolic Activation: RAT, LIVER, S-9, AROCLOR 1254, Method: PREINCUBATION) “inactive; negative”; (Test System: AMES SALMONELLA TYPHIMURIUM, Strain/Indicator: TA98(1,8-DNP6), Metabolic Activation: NONE, Method: STANDARD PLATE) “inactive; negative”. Further, the mutagenic call was “active; positive” (Test System: AMES SALMONELLA TYPHIMURIUM, Strain/Indicator: TA98(1,8-DNP6), Metabolic Activation: S-9, Method: STANDARD PLATE); “active; positive” (Test System: AMES SALMONELLA TYPHIMURIUM, Strain/Indicator: TA98, Metabolic Activation: HAMSTER, LIVER, S-9, AROCLOR 1254 (10%), Method: PREINCUBATION); “active; positive” (Test System: AMES SALMONELLA TYPHIMURIUM, Strain/Indicator: TA98, Metabolic Activation: HAMSTER, LIVER, S-9, AROCLOR 1254, Method: PREINCUBATION); “inactive; negative” under setting [1]; “inactive; negative” (Test System: AMES SALMONELLA TYPHIMURIUM, Strain/Indicator: TA98, Metabolic Activation: NONE, Method: STANDARD PLATE); “active; positive” (Test System: AMES SALMONELLA TYPHIMURIUM, Strain/Indicator: TA98, Metabolic Activation: RAT LIVER S-9, AROCLOR 1254, Method: PREINCUBATION). The mutagenic call is, setting by setting: (Test System: AMES SALMONELLA TYPHIMURIUM, Strain/Indicator: TA98, Metabolic Activation: RAT LIVER S-9, PHENOBARBITAL AND BETA-NAPHTHOFLAVONE, Method: PREINCUBATION) “active; positive”; (Test System: AMES SALMONELLA TYPHIMURIUM, Strain/Indicator: TA98, Metabolic Activation: RAT, LIVER, S-9, AROCLOR 1254 (10%), Method: PREINCUBATION) “active; positive”; (Test System: AMES SALMONELLA TYPHIMURIUM, Strain/Indicator: TA98, Metabolic Activation: RAT, LIVER, S-9, AROCLOR 1254, Method: PREINCUBATION) “active; positive”; (Test System: AMES SALMONELLA TYPHIMURIUM, Strain/Indicator: TA98, Metabolic Activation: RAT, LIVER, S-9, AROCLOR 1254, Method: STANDARD PLATE) “active; positive”; (Test System: AMES SALMONELLA TYPHIMURIUM, Strain/Indicator: TA98, Metabolic Activation: S-9, Method: STANDARD PLATE) “active; positive”; (Test System: AMES SALMONELLA TYPHIMURIUM, Strain/Indicator: TA100, Metabolic Activation: HAMSTER, LIVER, S-9, AROCLOR 1254 (10%), Method: PREINCUBATION) “inactive; negative”. In addition, the mutagenic call by setting is: (Test System: AMES SALMONELLA TYPHIMURIUM, Strain/Indicator: TA100, Metabolic Activation: HAMSTER, LIVER, S-9, AROCLOR 1254, Method: PREINCUBATION) “inactive; negative”; under setting [2], “inactive; negative”; (Test System: AMES SALMONELLA TYPHIMURIUM, Strain/Indicator: TA100, Metabolic Activation: NONE, Method: STANDARD PLATE) “inactive; negative”; (Test System: AMES SALMONELLA TYPHIMURIUM, Strain/Indicator: TA100, Metabolic Activation: RAT LIVER S-9, AROCLOR 1254, Method: PREINCUBATION) “inactive; negative”; (Test System: AMES SALMONELLA TYPHIMURIUM, Strain/Indicator: TA100, Metabolic Activation: RAT LIVER S-9, PHENOBARBITAL AND BETA-NAPHTHOFLAVONE, Method: PREINCUBATION) “inactive; negative”; (Test System: AMES SALMONELLA TYPHIMURIUM, Strain/Indicator: TA100, Metabolic Activation: RAT, LIVER, S-9, AROCLOR 1254 (10%), Method: PREINCUBATION) “inactive; negative”. The mutagenic call is, setting by setting: (Test System: AMES SALMONELLA TYPHIMURIUM, Strain/Indicator: TA100, Metabolic Activation: RAT, LIVER, S-9, AROCLOR 1254, Method: PREINCUBATION) “inactive; negative”; (Test System: AMES SALMONELLA TYPHIMURIUM, Strain/Indicator: TA100, Metabolic Activation: S-9, Method: STANDARD PLATE) “active; positive”; (Test System: AMES SALMONELLA TYPHIMURIUM, Strain/Indicator: TA1535, Metabolic Activation: HAMSTER, LIVER, S-9, AROCLOR 1254 (10%), Method: PREINCUBATION) “inactive; negative”; (Test System: AMES SALMONELLA TYPHIMURIUM, Strain/Indicator: TA1535, Metabolic Activation: HAMSTER, LIVER, S-9, AROCLOR 1254, Method: PREINCUBATION) “inactive; negative”; (Test System: AMES SALMONELLA TYPHIMURIUM, Strain/Indicator: TA1535, Metabolic Activation: NONE, Method: PREINCUBATION) “inactive; negative”; (Test System: AMES SALMONELLA TYPHIMURIUM, Strain/Indicator: TA1535, Metabolic Activation: RAT, LIVER, S-9, AROCLOR 1254 (10%), Method: PREINCUBATION) “inactive; negative”. In addition, the mutagenic call was “inactive; negative” (Test System: AMES SALMONELLA TYPHIMURIUM, Strain/Indicator: TA1535, Metabolic Activation: RAT, LIVER, S-9, AROCLOR 1254, Method: PREINCUBATION); “inactive; negative” (Test System: AMES SALMONELLA TYPHIMURIUM, Strain/Indicator: TA1537, Metabolic Activation: RAT LIVER S-9, PHENOBARBITAL AND BETA-NAPHTHOFLAVONE, Method: PREINCUBATION); “active; positive” (Test System: AMES SALMONELLA TYPHIMURIUM, Strain/Indicator: TA1538, Metabolic Activation: HAMSTER, LIVER, S-9, Method: STANDARD PLATE); “active; positive” (Test System: AMES SALMONELLA TYPHIMURIUM, Strain/Indicator: TA1538, Metabolic Activation: RAT, LIVER, S-9, AROCLOR 1254, Method: STANDARD PLATE); “active; positive, test conducted under both aerobic and anaerobic conditions” (Test System: Ames Salmonella typhimurium, Strain/Indicator: TA98, Metabolic Activation: Rat, Liver, S-9, Sodium phenobarbitone, Method: Preincubation); “inactive; negative” (Test System: Ames Salmonella typhimurium, Strain/Indicator: TA102, Metabolic Activation: None, Method: Preincubation). In addition, the mutagenic call was “inactive; negative” (Test System: Ames Salmonella typhimurium, Strain/Indicator: TA102, Metabolic Activation: Rat, Liver, S-9, Aroclor 1254, Method: Preincubation); “active; positive, test conducted under both aerobic and anaerobic conditions” (Test System: Ames Salmonella typhimurium, Strain/Indicator: TA1538, Metabolic Activation: Rat, Liver, S-9, Sodium phenobarbitone, Method: Preincubation); “active; positive” (Test System: MOUSE LYMPHOMA, Strain/Indicator: L5178Y (TK+/TK-), Metabolic Activation: NONE, Method: SUSPENSION/PLATE); “active; positive” (Test System: MOUSE LYMPHOMA, Strain/Indicator: L5178Y (TK+/TK-), Metabolic Activation: RAT, LIVER, S-9, AROCLOR 1254, Method: SUSPENSION/PLATE).

Regarding `COC(=O)/C(C#N)=C/c1ccc([N+](=O)[O-])o1`, under setting [1], the mutagenic call was “active; positive”.

Turning to `OCCN1CCNCC1`, the mutagenic call under setting [1] is “inactive; negative”; the mutagenic call (Test System: AMES SALMONELLA TYPHIMURIUM, Strain/Indicator: TA98, Metabolic Activation: RAT, LIVER, S-9, PCB, Method: PREINCUBATION) was “inactive; negative”; the mutagenic call under setting [2] is “inactive; negative”; the mutagenic call (Test System: AMES SALMONELLA TYPHIMURIUM, Strain/Indicator: TA100, Metabolic Activation: RAT, LIVER, S-9, PCB, Method: PREINCUBATION) is “inactive; negative”.
